Source: PubChem BioAssay (NCI)
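Dose response: 5 concentrations. Exposure: 48 h. Format: 96-well plates. Endpoint: linear interpolation; highest concentration if not reached. At the TGI there is no net growth.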

Tests used:
Test in all cases: inhibition of tumour cell growth, NCI panel, 48 h
[1] = system: U251 CNS
[2] = system: HOP-62 NSCLC
[3] = system: MDA-MB-231 breast
[4] = system: HL-60(TB) leukemia
[5] = system: K-562 leukemia
[6] = system: CCRF-CEM leukemia

SMILES | TGI [1] [µM] | TGI [2] [µM] | TGI [3] [µM] | TGI [4] [µM] | TGI [5] [µM] | TGI [6] [µM]
CCOC(=O)CSc1nc(-c2ccccc2)c(C#N)c(=O)[nH]1 | > 100 | > 100 | > 100 | > 100 | > 100 | > 100
CCOC(=O)c1sc2c(c1OC(=O)c1cccs1)c(=O)n(-c1ccccc1)c(=S)n2-c1ccccc1 | 31.4 | 50.3 | 41.8 | 48.4 | > 100 | 36
COc1ccc(-c2c(N)n(-c3nc4ccccc4s3)c(=O)c3cc([N+](=O)[O-])ccc23)cc1 | 35.2 | 27 | 48.7 | > 100 | > 100 | > 100
CCOC(=O)/C(C(=S)Nc1ccccc1)=C(/N)N1CCCC1 | > 100 | > 100 | > 100 | > 100 | > 100 | > 100
C1=NCCNCCN=Cc2ccc(cc2)OCc2cccc(n2)COc2ccc1cc2 | > 100 | 52.9 | > 100 | > 100 | > 100 | > 100
CC(=O)OCC(OC(C)=O)C(OC(C)=O)C(C=NN(C(C)=O)S(=O)(=O)c1ccc(/C=C2\NC(=O)NC2=O)cc1)OC(C)=O (stereo not drawn) | > 100 | > 100 | > 100 |  | > 100 | > 100
O=C(CN1CCNCCN(CC(=O)N2CCCCC2)CCNCC1)N1CCCCC1 | > 100 | > 100 | > 100 | 69.4 | > 100 | > 100
COc1ccc(NC(=O)CC(=O)N2N=C(C)C(N=Nc3ccc(S(=O)(=O)c4ccc(N=NC5C(=O)N(C(=O)CC(=O)Nc6ccc(OC)cc6)N=C5C)cc4)cc3)C2=O)cc1 (stereo not drawn) | > 100 | > 100 | > 100 | > 100 | > 100 | > 100
COc1cc2cc(C(=O)N3CC(CCl)c4ccc(O)cc43)[nH]c2c(OC)c1OC (stereo not drawn) |  |  | 0.0134 |  |  | > 100
Cc1cc(C)c(C2=NOC(c3ccccc3)(c3cc(=O)n(-c4ccccc4)s3)O2)c(C)c1 (stereo not drawn) | 66.4 | > 100 | 95 | > 100 | > 100 | > 100
CSc1nc(N)c(NC2OC(CO)C(O)C2O)c(=O)[nH]1 (stereo not drawn) | > 100 | > 100 | > 100 | > 100 | > 100 | > 100
COc1cc(OC)c(OC)cc1/C=N/N=C(\N)NO | > 100 | > 100 | > 100 | > 100 | > 100 | > 100
CN(C(=O)Cc1cc(Cl)c(Cl)cc1N=C=S)[C@H]1CCCC[C@@H]1N1CCCC1 | 28.2 | 27.9 | 28.6 | 23.8 | 5.89 | 7.32
CN(C)c1ccc(N=Nc2ccc3nc[nH]c3c2)cc1 | 76.4 |  | 39.4 | > 100 | 75.2 | > 100
O=C(Cn1c2c(c3ccccc31)CCCC2)NC1CCCCC1 |  | > 100 |  | > 100 | > 100 | > 100
CCCCCC/C=C\CCCCCCCCCc1cccc(O)c1C(=O)O | > 100 | > 100 | > 100 | > 100 | > 100 | > 100
